Assay results taken from ChEMBL document CHEMBL1155012, “Modulation of peripheral serotonin levels by novel tryptophan hydroxylase inhibitors for the potential treatment of functional gastrointestinal disorders” (J Med Chem, 2008).
Calls of active or inactive are those of the source. The calls are words filed in the database; no cut-off is given here.

Legend:
[1] = target: T1, Tryptophan 5-hydroxylase 1 (Homo sapiens, UniProt P17752); experiment: Inhibition of TPH1
T1 sequence (P17752 whole entry): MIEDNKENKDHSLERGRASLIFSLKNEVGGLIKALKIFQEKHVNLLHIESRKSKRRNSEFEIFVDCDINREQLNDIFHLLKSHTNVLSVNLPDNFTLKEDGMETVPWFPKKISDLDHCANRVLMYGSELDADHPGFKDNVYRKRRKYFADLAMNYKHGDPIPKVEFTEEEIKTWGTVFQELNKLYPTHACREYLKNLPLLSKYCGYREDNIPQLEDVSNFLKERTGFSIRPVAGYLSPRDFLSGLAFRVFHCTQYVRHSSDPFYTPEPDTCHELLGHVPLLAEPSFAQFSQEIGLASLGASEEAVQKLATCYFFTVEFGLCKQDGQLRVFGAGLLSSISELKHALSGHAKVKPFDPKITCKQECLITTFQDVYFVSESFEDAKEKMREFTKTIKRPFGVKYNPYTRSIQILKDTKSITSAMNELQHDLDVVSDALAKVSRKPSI

[2] = target: T2, Tryptophan 5-hydroxylase 1 (Rattus norvegicus, UniProt P09810); experiment: Inhibition of TPH1 in RBL cells assessed as inhibition of serotonin biosynthesis; format: cell-based
T2 sequence (P09810 whole entry): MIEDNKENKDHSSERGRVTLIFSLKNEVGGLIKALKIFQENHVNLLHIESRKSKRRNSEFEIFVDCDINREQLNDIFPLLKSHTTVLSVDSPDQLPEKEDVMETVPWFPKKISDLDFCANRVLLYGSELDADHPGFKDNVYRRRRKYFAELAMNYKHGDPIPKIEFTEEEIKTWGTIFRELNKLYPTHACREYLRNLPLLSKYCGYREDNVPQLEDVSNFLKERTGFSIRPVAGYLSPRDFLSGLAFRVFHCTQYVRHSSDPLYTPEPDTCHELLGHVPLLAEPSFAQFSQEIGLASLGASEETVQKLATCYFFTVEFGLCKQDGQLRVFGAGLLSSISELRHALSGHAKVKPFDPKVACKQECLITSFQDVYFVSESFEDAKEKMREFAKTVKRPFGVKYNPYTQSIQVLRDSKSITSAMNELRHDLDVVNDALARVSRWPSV

[3] = system: RBL; experiment: Ratio of EC50 for TPH1 in RBL cells to IC50 for TPH1; format: cell-based
[4] = AUC (0 to infinity) in C57 albino mouse at 1 mg/kg, iv; format: ADME, organism-based; parameters: time infinity, dose 1 mg/kg, route intravenous; conditions: plasma
[5] = AUC (0 to 6 hrs) in C57 albino mouse at 1 mg/kg, iv; format: ADME, organism-based; parameters: time < 6 hr, dose 1 mg/kg, route intravenous; conditions: plasma
[6] = Volume of distribution at steady state in C57 albino mouse 1 mg/kg, iv; format: ADME, organism-based; parameters: dose 1 mg/kg, route intravenous; conditions: in vivo, read-out: Vdss
[7] = system: Mus musculus; experiment: Reduction of 5HT level in mouse colon at 90 mg/kg, po twice a day; format: functional; parameters: scale not given: the % may be the effect or the level left
[8] = system: Mus musculus; experiment: Reduction of 5HT level in mouse intestine at 30 mg/kg, po twice a day; format: functional; parameters: scale not given: the % may be the effect or the level left
[9] = Clearance in C57 albino mouse plasma at 1 mg/kg, iv; format: ADME, organism-based; parameters: dose 1 mg/kg, route intravenous
[10] = Drug level in C57 albino mouse brain at 10 mg/kg, po after 6 hrs; format: ADME, organism-based; parameters: dose 10 mg/kg, route oral; conditions: read-out: Drug uptake
[11] = Cmax in C57 albino mouse at 10 mg/kg, po; format: ADME, organism-based; parameters: dose 10 mg/kg, route oral; conditions: in vivo
[12] = Drug level in C57 albino mouse brain after 24 hrs; format: ADME, tissue-based; conditions: read-out: Drug uptake
[13] = Half life in C57 albino mouse at 10 mg/kg, po; format: ADME, organism-based; parameters: dose 10 mg/kg, route oral; conditions: in vivo
[14] = system: Mus musculus; experiment: Reduction of 5HT level in mouse colon at 30 mg/kg, po twice a day; format: functional; parameters: scale not given: the % may be the effect or the level left
[15] = Ratio of drug level in brain to plasma in C57 albino mouse at 10 mg/kg, po after 2 hrs; format: ADME, organism-based; parameters: dose 10 mg/kg, route oral; conditions: read-out: BPR
[16] = Oral bioavailability in C57 albino mouse at 10 mg/kg; format: ADME, organism-based; conditions: in vivo
[17] = AUC (0 to infinity) in C57 albino mouse at 10 mg/kg, po; format: ADME, organism-based; parameters: time infinity, dose 10 mg/kg, route oral; conditions: plasma
[18] = Drug level in C57 albino mouse brain at 10 mg/kg, po after 2 hrs; format: ADME, organism-based; parameters: dose 10 mg/kg, route oral; conditions: read-out: Drug uptake
[19] = Half life in C57 albino mouse at 1 mg/kg, iv; format: ADME, organism-based; parameters: dose 1 mg/kg, route intravenous; conditions: in vivo
[20] = AUC (0 to 24 hrs) in C57 albino mouse at 10 mg/kg, po; format: ADME, organism-based; parameters: time < 24 hr, dose 10 mg/kg, route oral; conditions: plasma
[21] = system: Mus musculus; experiment: Reduction of 5HT level in mouse intestine at 90 mg/kg, po twice a day; format: functional; parameters: scale not given: the % may be the effect or the level left
[22] = Ratio of drug level in brain to plasma in C57 albino mouse at 10 mg/kg, po after 6 hrs; format: ADME, organism-based; parameters: dose 10 mg/kg, route oral; conditions: read-out: BPR
[23] = Tmax in C57 albino mouse at 10 mg/kg, po; format: ADME, organism-based; parameters: dose 10 mg/kg, route oral; conditions: in vivo
[24] = system: Mus musculus; experiment: Reduction of 5HT level in mouse intestine at 45 mg/kg, po twice a day after 3 days; format: functional, organism-based; parameters: dose 45 mg/kg
[25] = system: Mus musculus; experiment: Reduction of 5HT level in mouse brain at 45 mg/kg, po twice a day after 3 days; format: functional, organism-based; parameters: dose 45 mg/kg
[26] = system: Mus musculus; experiment: Reduction of 5HT level in mouse brain at 90 mg/kg, po twice a day after 3 days; format: functional, organism-based; parameters: dose 90 mg/kg
[27] = system: Mus musculus; experiment: Reduction of 5HT level in mouse intestine at 90 mg/kg, po twice a day after 3 days; format: functional, organism-based; parameters: dose 90 mg/kg

COc1ccc(CNc2ccc(-c3ccc(C[C@H](N)C(=O)O)cc3)cc2)cc1OC1CCCC1
IC50 [1]: > 10000 nM

C[C@@H](Oc1cc(-c2ccc(C[C@H](N)C(=O)O)cc2)nc(N)n1)c1ccc2ccccc2c1
IC50 [1]: 380 nM
EC50 [2]: 11000 nM

Cc1cccc(-c2ccccc2C(Oc2cc(-c3ccc(C[C@H](N)C(=O)O)cc3)nc(N)n2)C(F)(F)F)c1 (some centres not stated)
IC50 [1]: 70 nM
EC50 [2]: 56 nM

N[C@@H](Cc1ccc(-c2cnc(NCc3ccc4ccccc4c3)cn2)cc1)C(=O)O
IC50 [1]: 13 nM

N#Cc1ccc(CNc2cnc(-c3ccc(C[C@H](N)C(=O)O)cc3)cn2)cc1
IC50 [1]: 110 nM

C[C@@H](Nc1cc(-c2ccc(C[C@H](N)C(=O)O)cc2)nc(N)n1)c1ccc2ccccc2c1
IC50 [1]: 32 nM
EC50 [2]: 1700 nM

C[C@@H](Nc1nc(N)nc(-c2ccc(CC(C)(N)C(=O)O)cc2)n1)c1ccc2ccccc2c1 (some centres not stated)
IC50 [1]: 11100 nM

N[C@@H](Cc1ccc(-c2cnc(NCc3cnc4ccccc4c3)cn2)cc1)C(=O)O
IC50 [1]: 190 nM

C[C@@H](Nc1nc(N)nc(-c2ccc(CC(N)C(=O)O)nc2)n1)c1ccc2ccccc2c1 (some centres not stated)
IC50 [1]: 890 nM

COc1ccc(CNc2cnc(-c3ccc(C[C@H](N)C(=O)O)cc3)cn2)cc1OC1CCCC1
IC50 [1]: 45 nM

C[C@@H](Nc1nc(N)nc(N2CCC(C[C@H](N)C(=O)O)CC2)n1)c1ccc2ccccc2c1
IC50 [1]: 770 nM

Nc1nc(OC(c2ccccc2-c2ccco2)C(F)(F)F)cc(-c2ccc(C[C@H](N)C(=O)O)cc2)n1 (some centres not stated)
IC50 [1]: 24 nM
EC50 [2]: 48 nM

Cc1ccccc1-c1ccccc1CNc1cnc(-c2ccc(C[C@H](N)C(=O)O)cc2)cn1
IC50 [1]: 40 nM

N[C@@H](Cc1ccc(-c2cnc(NCC3CCc4ccccc4C3)cn2)cc1)C(=O)O (some centres not stated)
IC50 [1]: 46 nM

C[C@@H](Nc1nc(N)nc(-c2ccc(C(N)CC(=O)O)cc2)n1)c1ccc2ccccc2c1 (some centres not stated)
IC50 [1]: 3770 nM

Nc1nc(OC(c2ccc3ccccc3c2)C(F)(F)F)cc(-c2ccc(C[C@H](N)C(=O)O)cc2)n1 (some centres not stated)
IC50 [1]: 180 nM
Ratio [3]: 3
EC50 [2]: 510 nM

N[C@@H](Cc1ccc(-c2cnc(NCc3ccc(-c4ccccc4)cc3)cn2)cc1)C(=O)O
IC50 [1]: 44 nM

CCn1c2ccccc2c2cc(CNc3ccc(-c4ccc(C[C@H](N)C(=O)O)cc4)nc3)ccc21
IC50 [1]: > 10000 nM

COc1ccc(CNc2ccc(-c3ccc(C[C@H](N)C(=O)O)cc3)nn2)cc1OC1CCCC1
IC50 [1]: 970 nM

Nc1nc(OC(c2ccccc2-n2ccc(C(F)(F)F)n2)C(F)(F)F)cc(-c2ccc(C[C@H](N)C(=O)O)cc2)n1 (some centres not stated)
IC50 [1]: 29 nM
EC50 [2]: 70 nM

Nc1nc(OC(c2sccc2-c2ccco2)C(F)(F)F)cc(-c2ccc(C[C@H](N)C(=O)O)cc2)n1 (some centres not stated)
IC50 [1]: 54 nM
EC50 [2]: 63 nM

COc1ccc(CNc2cnc(-c3ccc(C[C@H](N)C(=O)O)cc3)cn2)cc1OC
IC50 [1]: 69 nM

Nc1nc(OC(c2ccc(-c3cccc(F)c3)cc2)C(F)(F)F)cc(-c2ccc(C[C@H](N)C(=O)O)cc2)n1 (some centres not stated)
AUC(0-inf) [4]: 8.54 µM·h
AUC(0-t) at 6 h [5]: 6.2 µM·h
Vd [6]: 0.73 L/kg
Activity [7]: 36%
Activity [8]: 55%
clearance [9]: 3.33 mL/min/kg
concentration at 6 h [10]: 6.15 nM
Cmax [11]: 641 nM
concentration at 24 h [12]: 0.38 nM
half-life [13]: 5.98 h
Activity [14]: 24%
Kp at 2 h [15]: 0.01
bioavailability [16]: 7.6%
AUC(0-inf) [17]: 6.5 µM·h
concentration at 2 h [18]: 6.05 nM
half-life [19]: 3.26 h
AUC(0-t) at 24 h [20]: 6.09 µM·h
Activity [21]: 70%
Kp at 6 h [22]: 0.01
Tmax [23]: 3.25 h

N[C@@H](Cc1ccc(-c2cnc(NCc3ccccn3)cn2)cc1)C(=O)O
IC50 [1]: 6150 nM

CCn1c2ccccc2c2cc(CNc3cnc(-c4ccc(C[C@H](N)C(=O)O)cc4)cn3)ccc21
IC50 [1]: 31 nM

N[C@@H](Cc1ccc(-c2cnc(NCC3CCCCC3)cn2)cc1)C(=O)O
IC50 [1]: 240 nM

CCOC(=O)[C@@H](N)Cc1ccc(-c2cc(OC(c3ccc(-c4cccc(F)c4)cc3)C(F)(F)F)nc(N)n2)cc1 (some centres not stated)
Activity [24]: Active
Activity [25]: inactive
Activity [26]: Active
Activity [27]: Active

C[C@@H](Nc1nc(N)nc(-c2cccc(CC(N)C(=O)O)c2)n1)c1ccc2ccccc2c1 (some centres not stated)
IC50 [1]: > 11000 nM

C[C@@H](Nc1nc(N)nc(-c2ccn(C[C@H](N)C(=O)O)n2)n1)c1ccc2ccccc2c1
IC50 [1]: 12600 nM

C[C@@H](Nc1nc(N)nc(-c2ccc(CC(N)C(=O)O)c(F)c2)n1)c1ccc2ccccc2c1 (some centres not stated)
IC50 [1]: 200 nM

Nc1nc(NCc2ccc3ccccc3c2)nc(-c2ccc(C[C@H](N)C(=O)O)cc2)n1
IC50 [1]: 24 nM

N[C@@H](Cc1ccc(-c2cnc(NCc3ccoc3)cn2)cc1)C(=O)O
IC50 [1]: 960 nM
